According to ChEMBL document CHEMBL3044610, “Khayanolides, rearranged phragmalin limonoid antifeedants from Khaya senegalensis” (Tetrahedron, 2001):
The source made the active and inactive calls. The rule behind the calls is not given here.

Key:
Type in all cases: functional, organism-based
Spodoptera littoralis [1] = test: Antifeedant activity against third-instar larva of Spodoptera littoralis fed on compound-treated Chinese cabbage leaf at 300 ppm by leaf-disk method
Spodoptera littoralis [2] = test: Antifeedant activity against third-instar larva of Spodoptera littoralis fed on compound-treated Chinese cabbage leaf at 500 ppm by leaf-disk method
Spodoptera littoralis [3] = test: Antifeedant activity against third-instar larva of Spodoptera littoralis fed on compound-treated Chinese cabbage leaf at 1000 ppm by leaf-disk method

| SMILES | Activity (Spodoptera littoralis [2]) | also measured |
| --- | --- | --- |
| COC(=O)[C@H](O)[C@H]1[C@]2(C)C[C@]3(O)[C@H](C(=O)[C@H]2O)[C@]24O[C@]25CC(=O)O[C@H](c2ccoc2)[C@]5(C)CC[C@@H]4[C@]13C | – | Activity (Spodoptera littoralis [1]): Active |
| COC(=O)[C@H](O)[C@H]1[C@@]2(C)C[C@]3(O)[C@H]4[C@@H](O[C@]56CC(=O)O[C@H](c7ccoc7)[C@]5(C)CC[C@H]([C@]13C)[C@]46O)[C@H]2O | Active | – |
| CC1(C)C(=O)[C@@H]2C[C@@]34O[C@]2(O)[C@]2(COC(=O)C[C@@H]12)[C@H]3CC[C@]1(C)[C@H]4CC(=O)O[C@H]1c1ccoc1 | – | Activity (Spodoptera littoralis [1]): Active |
| C=C1[C@@H]2CC[C@@]3(C)[C@H](c4ccoc4)OC(=O)C[C@]13O[C@H]1CC(=O)C(C)(C)[C@H](CC(=O)OC)[C@]12C | Active | – |
| C=C1[C@@H]2CC[C@@]3(C)[C@H](c4ccoc4)OC(=O)C[C@]13O[C@H]1CC(=O)C(C)(C)[C@H](C(OC(C)=O)C(=O)OC)[C@]12C (some centres not stated) | Active | – |
| C=C1[C@@H]2CC[C@@]3(C)[C@H](c4ccoc4)OC(=O)C[C@]13O[C@H]1CC(=O)C(C)(C)[C@H](C(O)C(=O)OC)[C@]12C (some centres not stated) | Active | – |
| COC(=O)[C@H](O)[C@H]1[C@]2(C)C[C@]3(O)[C@@H](C(=O)[C@H]2O)[C@]2(O)C4=CC(=O)O[C@@H](c5ccoc5)[C@]4(C)CC[C@@H]2[C@]13C | – | Activity (Spodoptera littoralis [3]): Active |
